Experimental findings from patent publication US20240409557A1, “5,6-FUSED AND 6,6-FUSED BICYCLIC ALCOHOLS AND ETHERS AND COMPOSITIONS FOR USE AS 15-PROSTAGLANDIN DEHYDROGENASE MODULATORS” (AMGEN INC., priority 2023, published 2024) are described below.

The target in experiment [1] is T1, human recombinant 15-PGDH (Homo sapiens, UniProt P15428).
T1 sequence (P15428 1-266): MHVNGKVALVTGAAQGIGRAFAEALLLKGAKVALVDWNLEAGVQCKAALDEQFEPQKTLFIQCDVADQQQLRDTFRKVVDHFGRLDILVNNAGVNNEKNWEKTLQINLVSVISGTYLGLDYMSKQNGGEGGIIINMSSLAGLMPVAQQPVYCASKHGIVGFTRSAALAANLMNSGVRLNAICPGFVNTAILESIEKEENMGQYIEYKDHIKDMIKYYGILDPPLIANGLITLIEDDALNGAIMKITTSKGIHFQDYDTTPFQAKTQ
Briefly: Recombinant 15-PGDH enzymatic inhibition assay (PGDH-Lumi, NADH signal). In kind it is biochemical. As to conditions: recombinant 15-PGDH; 15 min pre-incubation, 60 min reaction with PGE2 and NAD+, NADH signal. In outline:
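Recombinant 15-PGDH pre-incubated 15 min at room temperature with compound (22 concentrations, 2-fold dilutions) in 50 mM Tris pH 7.5, 0.01% Tween-20, […].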

The next experiment addresses T2, 15-PGDH in A549 cells (Homo sapiens, UniProt P15428).
T2 construct: endogenous in cells; host or cells: A549
T2 sequence (P15428 1-266): T1 sequence (P15428 1-266)
Briefly: A549 cellular 15-PGDH assay (PGE2 accumulation, HTRF). Particulars: interleukin-stimulated, inhibitor 24 hrs, PGE2 by competitive HTRF, read-out: A549 Cell Assay IC50. It is filed as cell-based. In a few lines:
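IL-13-stimulated A549 lung carcinoma cells released PGE2, which was measured in supernatants by competitive HTRF with a Eu-cryptate anti-PGE2 antibody and labelled PGE2. Signal falls as PGE2 rises. IC50 values were derived from the binding data.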
A general note: TR-FRET usually uses a lanthanide donor and a delayed reading to cut background.

pIC50: −log10 of the molar value.

As to `Cn1cc2cc(-c3ccc4cc([C@@H](O)[C@H]5C[C@@H](C(F)(F)F)C5)sc4n3)cnc2n1` (single isomer, unassigned) [Compound B84SC], the pIC50 in experiment [1] is 8.82; on 15-PGDH in A549 cells, 8.84.

Take `Cn1cc2cc(-c3ccc4cc([C@@H](O)[C@H]5C[C@H](C(F)(F)F)C5)sc4n3)cnc2n1` (single isomer, unassigned) [Compound B84ST]: the figures for the pIC50 (in experiment [1]; at 15-PGDH in A549 cells) were 8.92 and 9.19, respectively.

As for `Cn1cc2cc(-c3ccc4cc([C@H](O)[C@H]5CC5(F)F)sc4n3)cnc2n1` (single isomer, unassigned) [Compound B85RR], the pIC50 in experiment [1] was 9.33; on 15-PGDH in A549 cells, 9.15.

As to `Cn1cc2cc(-c3ccc4cc([C@H](O)[C@@H]5CC5(F)F)sc4n3)cnc2n1` (single isomer, unassigned) [Compound B85RS], the pIC50 in experiment [1] is 9.42; at 15-PGDH in A549 cells, 9.29.

As for `Cn1cc2cc(-c3ccc4cc([C@@H](O)[C@H]5CC5(F)F)sc4n3)cnc2n1` (single isomer, unassigned) [Compound B85SR], the pIC50 in experiment [1] was 8.91; on 15-PGDH in A549 cells, 8.82.

Regarding `Cn1cc2cc(-c3ccc4cc([C@@H](O)[C@@H]5CC5(F)F)sc4n3)cnc2n1` (single isomer, unassigned) [Compound B85SS], the pIC50 is 8.48 in experiment [1] and 8.55 at 15-PGDH in A549 cells.

As for `Cn1cc2cc(-c3ccc4cc([C@H](O)C5(C)CC(F)(F)C5)sc4n3)cnc2n1` (single isomer, unassigned) [Compound B86R], the pIC50 (in experiment [1]; at 15-PGDH in A549 cells) was 9.30 throughout.

As for `Cn1cc2cc(-c3ccc4cc([C@@H](O)C5(C)CC(F)(F)C5)sc4n3)cnc2n1` (single isomer, unassigned) [Compound B86S], the pIC50 in experiment [1] is 6.54; at 15-PGDH in A549 cells, 8.79.

On to `Cn1cc2cc(-c3ccc4cc([C@H](O)C56CC(C5)C6)sc4n3)cnc2n1` (single isomer, unassigned) [Compound B87R], for which the pIC50 is 9.31 in experiment [1] and 9.18 at 15-PGDH in A549 cells.

`Cn1cc2cc(-c3ccc4cc([C@@H](O)C56CC(C5)C6)sc4n3)cnc2n1` (single isomer, unassigned) [Compound B87S]: the pIC50 in experiment [1] was 7.54; at 15-PGDH in A549 cells, 9.24.

Regarding `CO[C@H]1C[C@@H]([C@@H](O)c2cc3ccc(-c4cnc5nn(C)cc5c4)nc3s2)C1` (single isomer, unassigned) [Compound B88RC], the pIC50 in experiment [1] was 9.30; at 15-PGDH in A549 cells, 9.36.

For `CO[C@H]1C[C@H]([C@@H](O)c2cc3ccc(-c4cnc5nn(C)cc5c4)nc3s2)C1` (single isomer, unassigned) [Compound B88RT], the pIC50 is 9.28 in experiment [1] and 9.29 at 15-PGDH in A549 cells.

Take `CO[C@H]1C[C@@H]([C@H](O)c2cc3ccc(-c4cnc5nn(C)cc5c4)nc3s2)C1` (single isomer, unassigned) [Compound B88SC]: the pIC50 is 8.00 in experiment [1] and 9.28 on 15-PGDH in A549 cells.

Turning to `CO[C@H]1C[C@H]([C@H](O)c2cc3ccc(-c4cnc5nn(C)cc5c4)nc3s2)C1` (single isomer, unassigned) [Compound B88ST], the figures for the pIC50 (in experiment [1]; on 15-PGDH in A549 cells) were 8.95 and 9.30, respectively.

In the case of `Cc1c([C@H](O)C2CCOCC2)sc2nc(-c3cnc4c(c3)nnn4C)ccc12` (single isomer, unassigned) [Compound B89R], the results for the pIC50 (in experiment [1]; at 15-PGDH in A549 cells) were 8.75 and 8.32, respectively.

For `Cc1c([C@@H](O)C2CCOCC2)sc2nc(-c3cnc4c(c3)nnn4C)ccc12` (single isomer, unassigned) [Compound B89S], the pIC50 in experiment [1] is 6.04; at 15-PGDH in A549 cells it was 6.43.

With `Cc1c([C@H](O)C2CCOCC2)sc2nc(-c3cnc4nn(C)cc4c3)ccc12` (single isomer, unassigned) [Compound B90R], the pIC50 in experiment [1] is 9.02; on 15-PGDH in A549 cells it was 9.07.

On to `Cc1c([C@@H](O)C2CCOCC2)sc2nc(-c3cnc4nn(C)cc4c3)ccc12` (single isomer, unassigned) [Compound B90S], for which the pIC50 in experiment [1] is 6.31; at 15-PGDH in A549 cells, 6.63.

For the compound `Cn1cc2cc(-c3ccc4cc([C@H](O)C56CC(C(F)(F)F)(C5)C6)sc4n3)cnc2n1` (single isomer, unassigned) [Compound B91R], the negative logarithm of the IC50 (pIC50) in experiment [1] is 9.26; at 15-PGDH in A549 cells, 8.96.

For the compound `Cn1cc2cc(-c3ccc4cc([C@@H](O)C56CC(C(F)(F)F)(C5)C6)sc4n3)cnc2n1` (single isomer, unassigned) [Compound B91S], the results for the pIC50 (in experiment [1]; on 15-PGDH in A549 cells) were 7.46 and 8.63, respectively.

With `Cc1c([C@@H](CO)C2CC(F)(F)C2)sc2nc(-c3cnc4nn(C)cc4c3)ccc12` (single isomer, unassigned) [Compound B93R], the pIC50 in experiment [1] was 6.76; at 15-PGDH in A549 cells it was 6.61.

For `Cc1c([C@H](CO)C2CC(F)(F)C2)sc2nc(-c3cnc4nn(C)cc4c3)ccc12` (single isomer, unassigned) [Compound B93S], the values for the pIC50 (in experiment [1]; on 15-PGDH in A549 cells) were 8.58 and 7.85, respectively.

Consider `Cn1cc2cc(-c3ccc4cc([C@H](O)[C@H]5CCC5(F)F)sc4n3)cnc2n1` (single isomer, unassigned) [Compound B94RR], for which the results for the pIC50 (in experiment [1]; on 15-PGDH in A549 cells) were 9.47 and 9.18, respectively.

As to `Cn1cc2cc(-c3ccc4cc([C@H](O)[C@@H]5CCC5(F)F)sc4n3)cnc2n1` (single isomer, unassigned) [Compound B94RS], the pIC50 in experiment [1] is 9.49; at 15-PGDH in A549 cells, 9.18.

Regarding `Cn1cc2cc(-c3ccc4cc([C@@H](O)[C@H]5CCC5(F)F)sc4n3)cnc2n1` (single isomer, unassigned) [Compound B94SR], the figures for the pIC50 (in experiment [1]; at 15-PGDH in A549 cells) were 9.19 and 8.58, respectively.

Turning to `Cn1cc2cc(-c3ccc4cc([C@@H](O)[C@@H]5CCC5(F)F)sc4n3)cnc2n1` (single isomer, unassigned) [Compound B94SS], the pIC50 is 8.91 in experiment [1] and 8.44 at 15-PGDH in A549 cells.

With `Cn1cc2cc(-c3ccc4c(N)c([C@H](O)C5CC(F)(F)C5)sc4n3)cnc2n1` (single isomer, unassigned) [Compound B95R], the values for the pIC50 (in experiment [1]; on 15-PGDH in A549 cells) were 8.92 and 8.79, respectively.

Take `Cn1cc2cc(-c3ccc4c(N)c([C@@H](O)C5CC(F)(F)C5)sc4n3)cnc2n1` (single isomer, unassigned) [Compound B95S]: the figures for the pIC50 (in experiment [1]; on 15-PGDH in A549 cells) were 8.19 and 8.02, respectively.

`Cn1cc2cc(-c3ccc4cc([C@]5(O)C[C@]6(CCO6)C5)sc4n3)cnc2n1` (single isomer, unassigned) [Compound C56C, cis-6-(6-(2-methyl-2H-pyrazolo[3,4-b]pyridin-5-yl)thieno[2,3-b]pyridin-2-yl)-1-oxaspiro[3.3]heptan-6-ol]: the figures for the pIC50 (in experiment [1]; at 15-PGDH in A549 cells) were 9.37 and 9.74, respectively.

Regarding `Cn1cc2cc(-c3ccc4cc([C@]5(O)C[C@@]6(CCO6)C5)sc4n3)cnc2n1` (single isomer, unassigned) [Compound C56T, trans-6-(6-(2-methyl-2H-pyrazolo[3,4-b]pyridin-5-yl)thieno[2,3-b]pyridin-2-yl)-1-oxaspiro[3.3]heptan-6-ol], the pIC50 in experiment [1] was 8.93; on 15-PGDH in A549 cells, 9.00.

Consider `COC[C@H]1C[C@](O)(c2cc3ccc(-c4cnc5nn(C)cc5c4)nc3s2)C1` (single isomer, unassigned) [Compound C58C, cis-3-(methoxymethyl)-1-(6-(2-methyl-2H-pyrazolo[3,4-b]pyridin-5-yl)thieno[2,3-b]pyridin-2-yl)cyclobutanol], for which the values for the pIC50 (in experiment [1]; at 15-PGDH in A549 cells) were 9.05 and 9.28, respectively.

For the compound `CO[C@]1(C)C[C@](O)(c2cc3ccc(-c4cnc5nn(C)cc5c4)nc3s2)C1` (single isomer, unassigned) [Compound C59T, trans-3-methoxy-3-methyl-1-(6-(2-methyl-2H-pyrazolo[3,4-b]pyridin-5-yl)thieno[2,3-b]pyridin-2-yl)cyclobutanol], the pIC50 was 9.14 in experiment [1] and 9.80 on 15-PGDH in A549 cells.

For `Cn1cc2cc(-c3ccc4cc([C@]5(O)C[C@@H](C6CC6)C5)sc4n3)cnc2n1` (single isomer, unassigned) [Compound C62C, cis-3-cyclopropyl-1-(6-(2-methyl-2H-pyrazolo[3,4-b]pyridin-5-yl)thieno[2,3-b]pyridin-2-yl)cyclobutanol], the pIC50 in experiment [1] is 9.44; at 15-PGDH in A549 cells it was 10.49.

For `C[C@H]1CC[C@]1(O)c1cc2ccc(-c3cnc4nn(C)cc4c3)nc2s1` (single isomer, unassigned) [Compound C64RS], the pIC50 in experiment [1] is 7.68; on 15-PGDH in A549 cells it was 8.49.

As to `Cn1cc2cc(-c3ccc4cc([C@@]5(O)CCC5(C)C)sc4n3)cnc2n1` (single isomer, unassigned) [Compound C65R], the pIC50 in experiment [1] was 7.49; at 15-PGDH in A549 cells, 8.46.

For the compound `CO[C@]1(C(F)(F)F)C[C@@](O)(c2cc3ccc(-c4cnc5nn(C)cc5c4)nc3s2)C1` (single isomer, unassigned) [Compound C66C, cis-3-methoxy-1-(6-(2-methyl-2H-pyrazolo[3,4-b]pyridin-5-yl)thieno[2,3-b]pyridin-2-yl)-3-(trifluoromethyl)cyclobutanol], the pIC50 was 9.07 in experiment [1] and 9.69 on 15-PGDH in A549 cells.

What is called pIC50 is −log10 of the IC50, conventionally taken in molar units.
